We go through one compound from patent US10301629B2, “Structure, manufacturing and uses of human-derived cell-permeable peptides conjugated with specific biologically active cargo peptides” (priority 2013, dated 2019).

Structures are written as SMILES.

For the assay, the system named is cytokine response to LPS. Put plainly: Mouse endotoxin (LPS) challenge, peptide pretreatment 30 minutes prior, plasma cytokines. The conditions noted are these: peptide 500 micrograms per mouse, dexamethasone 3 mg/kg, PPL-002 p<0.01.

Method: The ability of peptide pretreatment to inhibit the inflammatory cytokine response or stimulate the anti-inflammatory cytokine response to LPS was determined 2 hours after LPS injection (FIG. 10).
Peptides were dosed both i.p. and i.v. at 500 micrograms per mouse (10 mg/kg) 30 minutes prior to challenge by injection of endotoxin (LPS) at a dose of 50 micrograms/kg.

Regarding `C[C@@H]1C[C@H]2[C@@H]3CCC4=CC(=O)C=C[C@]4(C)[C@@]3(F)[C@@H](O)C[C@]2(C)[C@@]1(O)C(=O)CO` [Dexamethasone, dexamethasone, reference compound], the “IL-10 level after LPS challenge, i.p. pretreatment” value was “no effect”.
